Experimental data: patent US7368279B2, “Three dimensional bioengineered smooth muscle tissue and sphincters and methods therefor” (The Regents of The University of Michigan, priority 2004, dated 2008)

What was measured:
[1] = test system: isolated smooth muscle cells from the rabbit IAS; experiment: Acetylcholine-induced contraction of isolated IAS smooth muscle cells (decrease in cell length); assay type: cell-based; details: for contraction, percent decrease in cell length from control: 10^−7 M acetylcholine, HEPES buffer; for decrease in cell length: acetylcholine, 0 Ca2+/2 mM EGTA HEPES buffer
From the text: Smooth muscle cells were isolated from the internal anal sphincter (IAS) of New Zealand White rabbits as described previously (Bitar et al., Am J Physiol 260: G537-G542, 1991; Bitar et al., Am J Physiol 242: G400-G407, 1982). Briefly, the IAS, consisting of the most distal 3 mm of the circular muscle layer, ending at the junction of skin and mucosa, was removed by sharp dissection. The sphincter was rapidly cleaned and striped of connective tissue in ice cold carbonated Krebs solution containing 2% penicillin-streptomycin. The tissue was cut into small pieces and transferred to a 100 mm plate containing 15 ml of HEPES buffer (pH 7.4; NaCl (115 mM), KCl (5.7 mM), KH2PO4 (2.0 mM), HEPES (24.6 mM), CaCl2 (1.9 mM), MgCl2 (0.6 mM), glucose (5.6 mM), 0.01% soybean trypsin inhibitor, and 0.184 (wt/vol) DMEM) with 0.1% collagenase type II (Worthington Biochemical Corp., Lakewood, N.J.) for digestion in an incubator (37° C. with 5% CO2) for 1 hour. Fresh HEPES buffer (15 ml) with collagenase was added and the contents of the plate were mechanically dissociated using a 10 ml pipette and incubated for 1 additional hour. After the second digestion period, the cells were collected, centrifuged at 800×g for 10 minutes and the supernatant discarded. The cells were washed (3×) a to ensure removal of excess collagenase and ultimately re-suspended in either HEPES buffer or 0 Ca^2+/2 mM EGTA HEPES buffer (HEPES without CaCl2 and containing 2 mM EGTA). To determine the effect of acetylcholine on contraction of isolated muscle cells, acetylcholine (10^−7 M) was added to a suspension of isolated smooth muscle cells for 30 seconds or 4 minutes with untreated cells as controls. The reaction was stopped and cells were fixed by the addition of 0.1 ml of acrolein at a final concentration of 0.1%. Individual cell lengths were measured by computerized image micrometry (Bitar et al., Am J Physiol 242: G400-G407, 1982. Bitar et al., Science 216: 531-533, 1982). The length of cells in the control state or after addition of acetylcholine was obtained by measuring 30-50 cells encountered randomly in successive microscopic fields from each of three separate experiments. The contractile response is defined as the decrease in the average length of the cells counted and is expressed as the percent change from the control length.

[2] = test system: association of actin with myosin in sphincteric smooth muscle cells; experiment: Immunoprecipitation/immunoblot: acetylcholine-induced association of actin with myosin; assay type: cell-based, rat; details: 0.1 μM acetylcholine
Method: (§1) Decreased association of actin with myosin and decreased association of tropomyosin with HSP27 in sphincteric smooth muscle cells from old rats (28-33 month old) was observed when compared to adult counterparts (18 months old). Whole cell lysates (WCL) from acetylcholine (0.1 μM) stimulated and unstimulated sphincteric smooth muscle cells of adult and old rats were extracted and immunoprecipitated as described previously (Somara et al, Amer. J. Physiol. 286(6): C1290-1301, 2004). Briefly, actin was immunoprecipited using an anti-actin antibody followed by immunoblotting with an anti-myosin antibody. […] To further investigate phospho-HSP27-induced reinstatement of smooth muscle cell contractile function, sphincter smooth muscle cells isolated from old rats IAS were transfected with phosphomimic-HSP27 as described previously. Whole cells lysates were extracted and immunoprecipitated as described previously (Somara et al, Amer. J. Physiol. 286(6): C1290-1301, 2004).

[3] = test system: association of tropomyosin with HSP27 in sphincteric smooth muscle cells; experiment: Immunoprecipitation/immunoblot: acetylcholine-induced association of tropomyosin with HSP27; assay type: cell-based, rat; details: 0.1 μM acetylcholine
Method: as §1

[4] = test system: rat IAS cells; experiment: Acetylcholine-induced contraction of isolated sphincteric smooth muscle cells of adult and old rats; assay type: cell-based; details: for cell population with less than 80 μM cell length: 30 second stimulation
Method: To determine the effect of acetylcholine on contraction of isolated muscle cells, acetylcholine (10^−7 M) was added to a suspension of isolated smooth muscle cells for 30 seconds or 4 minutes with untreated cells as controls. The reaction was stopped and cells were fixed by the addition of 0.1 ml of acrolein at a final concentration of 0.1%. Individual cell lengths were measured by computerized image micrometry (Bitar et al., Am J Physiol 242: G400-G407, 1982. Bitar et al., Science 216: 531-533, 1982). The length of cells in the control state or after addition of acetylcholine was obtained by measuring 30-50 cells encountered randomly in successive microscopic fields from each of three separate experiments. The contractile response is defined as the decrease in the average length of the cells counted and is expressed as the percent change from the control length. Acetylcholine-induced contraction of isolated sphincteric smooth muscle cells was defined as the percent decrease in cell length compared to control. […] In old rats, 10^−7M acetylcholine-induced contraction at 30 seconds was approximately 3-fold less forceful (12.8±4.4%) than adult rat cells. […] In addition, after acetylcholine-induced contraction, there was a preponderance of longer cells and in old rats (24% above 80 μm) when compared to adult counterparts (17% above 80).

[5] = test system: bioengineered colon smooth muscle rings; experiment: Isometric force of bioengineered colon smooth muscle rings; assay type: cell-based, rabbit
Method: To develop a three dimensional physiological model of the smooth muscle cells in vitro, isolated colonic smooth muscle cells were used. Smooth muscle cells isolated from the colon of rabbits were seeded in a fibrin-based tissue construct as described in detail in Example 2. In this construct, the smooth muscle cells migrated and self-assembled in circumferential alignment. As the cells proliferated, the fibrin gel shrunk and contracted around a 5 mm diameter SYLGARD mold, resulting in a 3-D cylindrical ring of colonic tissue (smooth muscle ring). […] Maximal ΔP induced by acetylcholine stimulation was 17.8 μN, resulting in a specific force (sΔP) of […].

With `CC(=O)OCC[N+](C)(C)C` [acetylcholine] the “contraction, percent decrease in cell length from control” value ([1]; 30 seconds) was 28.85±3.20%, the “contraction, percent decrease in cell length from control” value ([1]; 4 minutes) was 27.09±4.43% and the “decrease in cell length” value ([1]; 30 seconds) was 0.5±4.47%. For the same molecule, the “decrease in cell length” value ([1]; 4 minutes) was 4±3.91%, the “acetylcholine-induced association of actin with myosin” value ([2]; adult rats, 30 seconds) was 243.70±8.20% and the “acetylcholine-induced association of actin with myosin” value ([2]; adult rats, 4 minutes) was 274.34±10.43%. The “acetylcholine-induced association of actin with myosin” value ([2]; old rats, 30 sec) was 175.32±10.12%, the “acetylcholine-induced association of actin with myosin” value ([2]; old rats, 4 minutes) was 231.79±10.45% and the “acetylcholine-induced association of tropomyosin with HSP27” value ([3]; adult rats, 30 seconds) was 218.67±5.48%. For the same molecule, the “acetylcholine-induced association of tropomyosin with HSP27” value ([3]; adult rats, 4 minutes) was 268.39±6.38%, the “acetylcholine-induced association of tropomyosin with HSP27” value ([3]; old rats, 30 sec) was 149.93±8.60% and the “acetylcholine-induced association of tropomyosin with HSP27” value ([3]; old rats, 4 minutes) was 223.21±7.46%. For the same molecule, the “fold less forceful contraction in old than adult rat cells” value ([4]; 10^−7 M acetylcholine, 30 seconds) was “approximately 3 fold”, the “contraction, percent decrease in cell length compared to control” value (from here on “contraction, percent decrease … to control”) ([4]; adult rat IAS cells, 10^−7 M acetylcholine, 30 seconds) was 44.7±1.34% and the “contraction, percent decrease … to control” value ([4]; adult rat IAS cells, 10^−7 M acetylcholine, 4 minutes) was 40.65±1.43%. For the same molecule, the “cell population with less than 80 μM cell length” value ([4]; adult rat IAS cells, 10^−7 M acetylcholine) was 89%, the “longer cells above 80 after acetylcholine-induced contraction” value ([4]; adult rats) was 17% and the “contraction, percent decrease … to control” value ([4]; old rat IAS cells, 10^−7 M acetylcholine, 30 seconds) was 12.8±4.4%. For the same molecule, the “contraction, percent decrease … to control” value ([4]; old rat IAS cells, 10^−7 M acetylcholine, 4 minutes) was 16.99±6.07%, the “cell population with less than 80 μM cell length” value ([4]; old rat IAS cells, 10^−7 M acetylcholine) was 71% and the “longer cells above 80 μm after acetylcholine-induced contraction” value ([4]; old rats) was 24%. The “maximal ΔP induced by acetylcholine stimulation” value [5] was 17.8 μN.
